According to the NIST ThermoML archive (doi:10.1021/acs.jced.8b00387):

Assay: xn = mol fraction of the nth substance listed
Settings: for viscosity / mass density / speed of sound: 102 kPa, Liquid; for viscosity: Concentric cylinders viscometry; for mass density: Vibrating tube method; for speed of sound: Frequency=3 MHz, Single path-length method; for surface tension liquid-gas: 295 K, Pendant drop shape

CC(CC(C)(C)C)CC(C)(C)CC(C)(C)C (stereo not given) [2,2,4,4,6,8,8-heptamethylnonane] + CCCCCCc1ccccc1
Settings | mass density [kg/m3] | speed of sound [m/s] | viscosity [mPa·s]
253.15 K, x2 = 0.1015 | 816.6 | – | 11.82
253.15 K, x2 = 0.2005 | 822.2 | – | 10.18
253.15 K, x2 = 0.2999 | 828 | – | 9.04
253.15 K, x2 = 0.4001 | 834.5 | – | 7.96
253.15 K, x2 = 0.4996 | 841.5 | – | 7.08
253.15 K, x2 = 0.6 | 849.4 | – | 6.37
253.15 K, x2 = 0.6999 | 857.7 | – | 5.78
253.15 K, x2 = 0.8 | 867.1 | – | 5.3
253.15 K, x2 = 0.9 | 877.1 | – | 4.94
288.15 K, x2 = 0.1015 | 792.77 | 1311.3 | –
288.15 K, x2 = 0.2005 | 798.05 | 1317.6 | –
288.15 K, x2 = 0.2999 | 803.73 | 1324.6 | –
288.15 K, x2 = 0.4001 | 810.02 | 1332 | –
288.15 K, x2 = 0.4996 | 816.74 | 1340.4 | –
288.15 K, x2 = 0.6 | 824.16 | 1349.4 | –
288.15 K, x2 = 0.6999 | 832.36 | 1359.3 | –
288.15 K, x2 = 0.8 | 841.37 | 1370 | –
288.15 K, x2 = 0.9 | 851.27 | 1382.2 | –
293.15 K, x2 = 0.1015 | 789.39 | 1292.1 | 3.37
293.15 K, x2 = 0.2005 | 794.63 | 1298.5 | 3.04
293.15 K, x2 = 0.2999 | 800.29 | 1305.4 | 2.75
293.15 K, x2 = 0.4001 | 806.56 | 1313 | 2.51
293.15 K, x2 = 0.4996 | 813.23 | 1321.1 | 2.3
293.15 K, x2 = 0.6 | 820.65 | 1330.2 | 2.12
293.15 K, x2 = 0.6999 | 828.75 | 1340.1 | 1.98
293.15 K, x2 = 0.8 | 837.7 | 1350.9 | 1.85
293.15 K, x2 = 0.9 | 847.55 | 1363 | 1.74
303.15 K, x2 = 0.1015 | 782.63 | 1254.4 | 2.68
303.15 K, x2 = 0.2005 | 787.8 | 1261.2 | 2.44
303.15 K, x2 = 0.2999 | 793.41 | 1267.7 | 2.23
303.15 K, x2 = 0.4001 | 799.59 | 1275.6 | 2.05
303.15 K, x2 = 0.4996 | 806.19 | 1283.4 | 1.89
303.15 K, x2 = 0.6 | 813.53 | 1292.4 | 1.78
303.15 K, x2 = 0.6999 | 821.53 | 1302.3 | 1.66
303.15 K, x2 = 0.8 | 830.36 | 1313.5 | 1.56
303.15 K, x2 = 0.9 | 840.1 | 1325.2 | 1.48
313.15 K, x2 = 0.1015 | 775.87 | 1217.8 | 2.19
313.15 K, x2 = 0.2005 | 780.97 | 1224.6 | 2
313.15 K, x2 = 0.2999 | 786.51 | 1231 | 1.84
313.15 K, x2 = 0.4001 | 792.62 | 1238.9 | 1.7
313.15 K, x2 = 0.4996 | 799.14 | 1246.6 | 1.58
313.15 K, x2 = 0.6 | 806.39 | 1255.5 | 1.49
313.15 K, x2 = 0.6999 | 814.29 | 1265.4 | 1.4
313.15 K, x2 = 0.8 | 823.01 | 1276.7 | 1.32
313.15 K, x2 = 0.9 | 832.64 | 1288.3 | 1.25
323.15 K, x2 = 0.1015 | 769.09 | 1181.9 | 1.82
323.15 K, x2 = 0.2005 | 774.12 | 1188.7 | 1.67
323.15 K, x2 = 0.2999 | 779.61 | 1195.1 | 1.55
323.15 K, x2 = 0.4001 | 785.63 | 1203 | 1.44
323.15 K, x2 = 0.4996 | 792.08 | 1210.5 | 1.37
323.15 K, x2 = 0.6 | 799.24 | 1219.5 | 1.28
323.15 K, x2 = 0.6999 | 807.04 | 1229.4 | 1.2
323.15 K, x2 = 0.8 | 815.65 | 1240.5 | 1.14
323.15 K, x2 = 0.9 | 825.16 | 1252 | 1.09
333.15 K, x2 = 0.1015 | 762.29 | 1147.1 | 1.53
333.15 K, x2 = 0.2005 | 767.25 | 1153.6 | 1.42
333.15 K, x2 = 0.2999 | 772.68 | 1160.3 | 1.32
333.15 K, x2 = 0.4001 | 778.62 | 1167.9 | 1.23
333.15 K, x2 = 0.4996 | 784.99 | 1175.5 | 1.18
333.15 K, x2 = 0.6 | 792.06 | 1184.4 | 1.11
333.15 K, x2 = 0.6999 | 799.77 | 1194.3 | 1.04
333.15 K, x2 = 0.8 | 808.26 | 1205.1 | 0.99
333.15 K, x2 = 0.9 | 817.65 | 1216.8 | 0.945

Settings | surface tension liquid-gas [mN/m]
x2 = 0.1015 | 24.4
x2 = 0.2005 | 24.5
x2 = 0.2999 | 24.7
x2 = 0.4001 | 25.3
x2 = 0.4996 | 25.6
x2 = 0.6 | 25.8
x2 = 0.6999 | 26.5
x2 = 0.8 | 27.2
x2 = 0.9 | 27.9
